Data taken from US7211583B2, “7-azaindoles and the use thereof as therapeutic agents” (Elbion AG, priority 2003, dated 2007).

Target: phosphodiesterase 4
Assay: Phosphodiesterase 4 inhibition, SPA with enzyme preparation from human PMNL
Type: biochemical
Conditions: cytosolic PDE4 from human PMNL, 0.5 μM [3H]-cAMP, 37° C., 30 minutes; read-out: PDE 4 inhibition IC50
Experimental: PDE4 activity is determined using enzyme preparations from human polymorphonuclear […] (PMNL). Human blood (buffy coats) was anticoagulated with citrate. A centrifugation at 700×g at room temperature (RT) for 20 minutes separates the platelet-rich plasma in the supernatant from the erythrocytes and leukocytes. The PMNLs for the PDE4 determination are isolated by a subsequent dextran sedimentation and in gradient centrifugation with Ficoll-Paque. After the cells have been washed twice, the erythrocytes which are still present are lysed by adding 10 ml of hypotonic buffer (155 mM NH4Cl, 10 mM NaHCO3, 0.1 mM EDTA, pH=7.4) at 4° C. within 6 minutes. The still intact PMNLs are then washed twice with PBS and lysed by ultrasound. The supernatant from a centrifugation at 4° C. and 48000×g for one hour contains the cytosolic fraction of PDE 4 and is employed for the PDE4 measurements.
The phosphodiesterase activity is assayed using a modified Amersham Pharmacia Biotech method, an SPA (scintillation proximity assay).
The reaction mixtures contain buffer (50 mM Tris-HCl (pH 7.4), 5 mM MgCl2, 100 μM cGMP), the inhibitors in variable concentrations and the appropriate enzyme preparation. The reaction is started by adding the substrate, 0.5 μM [^3H]-cAMP. The final volume is 100 μl. Test substances are made up as stock solutions in DMSO. The DMSO concentration in the reaction mixture is 1% v/v. The PDE activity is unaffected at this DMSO concentration. After the reaction has been started by adding substrate, the samples are incubated at 37° C. for 30 minutes. The reaction is stopped by adding a defined amount of SPA beads, and the samples are counted after one hour in a Beta counter. The nonspecific enzymic activity (the blank) is determined in the presence of 100 μM rolipram and subtracted from the test results. The incubation mixtures for the PDE4 assay contain 100 μM cGMP in order to inhibit any contamination by PDE 3.

Structure (SMILES)	IC50 [µM]
O=C(Nc1c(Cl)c[n+]([O-])cc1Cl)C(=O)c1cn(Cc2ccc(F)cc2)c2ncccc12 [Compound 3, N-(3,5-Dichloro-1-oxopyridin-4-yl)-[1-(4-fluorobenzyl)-7-azaindol-3-yl]glyoxylamide]	0.008
O=C(Nc1c(Cl)cncc1Cl)C(=O)c1cn(Cc2ccc(F)cc2)c2c1ccc[n+]2[O-] [Compound 1, N-(3,5-Dichloropyridin-4-yl)-[1-(4-fluorobenzyl)-7-oxo-7-azaindol-3-yl]glyoxylamide]	0.052
O=C(Nc1c(Cl)c[n+]([O-])cc1Cl)C(=O)c1cn(Cc2ccc(F)cc2)c2c1ccc[n+]2[O-] [Compound 4, N-(3,5-Dichloro-1-oxopyridin-4-yl)-[1-(4-fluorobenzyl)-7-oxo-7-azaindol-3-yl]glyoxylamide]	0.751
O=C(Nc1c(Cl)cccc1Cl)C(=O)c1cn(Cc2ccccc2Cl)c2c1ccc[n+]2[O-] [Compound 2, N-(2,6-Dichlorophenyl)-[1-(2-chlorobenzyl)-7-oxo-7-azaindol-3-yl]glyoxylamide]	0.048
